For data set [1] the following is noted: n-octanol and water; cited from earlier work.
Data set [2] can be described thus: Influence of the pH on the solubility of oleic acid in aqueous medium. The data set is classed as physicochemical.
Procedure: At the beginning the influence of the pH on the solubility of oleic acid in aqueous medium was tested. These tests were conducted in order to exclude the possibility that the observed solubility of oleic acid was due to pH changes and not primarily because of the interaction of functional groups.
A short description of data set [3]: physchem.
Procedure: In the following tests oleic acid was mixed with the test substances in H2O, Subsequently, log P and pH were measured and the solubility of the test substance in H2O was estimated together with an estimation of the interaction between oleic acid and the test substance according to the scheme shown below.
The conditions of data set [4]: cited from earlier work.

As usually defined, the logP is a log measure of how a compound divides between an organic and an aqueous phase. As a reminder, the pKa is the negative logarithm of the acid dissociation constant.

Where two headings read alike, the source gives them in different places.

Regarding `CCCCCCCC(=O)O` [octanoic acid], in data set [1], the “log KOW” value is given as 3.05.
Regarding `CCCCCCCC/C=C\CCCCCCCC(=O)O` [oleic acid, cis-9-octadecenoic acid], the results for the “solubility of oleic acid in aqueous medium” value in data set [2] (pH 14), in data set [2] (pH range of 9-12 at room temperature) and in data set [2] (starting at pH 13) were “formation of a solid precipitate”, “no interaction” and “begins to dissolve”, respectively.
`N=C(N)NCCCC(N)C(=O)O` [L-Arginine, 2-amino-5-guanidinopentanoic acid] yielded a logP in data set [3] of -3.52. Moreover, the pKa in data set [4] (amino group) is 8.99; in data set [4] (carboxyl group), 1.82.

The values above are taken from patent US9127233B2, “Device and method for solubilizing, separating, removing and reacting carboxylic acids in oils, fats, aqueous or organic solutions by means of micro-or nanoemulsification” (priority 2010, dated 2015).
